Like-named read-outs stand apart in the source and are kept apart here.
Experiments:
[1] = test system: KERed from C. parapsilosis; assay: Substrate spectrum of the KERed; type: biochemical, Candida parapsilosis; conditions: for Rel. Activity: substrate 8 mM, activity with 5-oxo-hexanoic acid ethyl ester = 100%, NADH 0.2 mM, pH 7.9; for Acceptance as substrate by the KERed (in words): reduction with NADH
Method: For the following investigation, partially purified enzyme (after Q-sepharose chromatography, 67-times enrichment) was used. […]
5-oxohexanoic acid ethyl ester […]
Corresponding to example 3.B, instead of 5-oxohexanoic acid ethyl ester a series of aromatic and aliphatic ketoesters, ketoacids, ketones, diketones and aldehydes were investigated as to whether they could be reduced enzymatically. For this the compounds were added always in 8 mM final concentration. […] The activity with 5-oxo-hexanoic acid ethyl ester was arbitrarily selected as 100%.

[2] = test system: KERed from Candida parapsilosis; assay: Kinetic characterization of the KERed; type: biochemical
[3] = referred to 2-butanone, partially purified enzyme

Compound: COC(=O)CC(C)=O
- Rel. Activity [1]: 67%

Compound: CCOC(=O)CCCC(C)=O
- Rel. Activity [1]: 100%

Compound: CC(=O)CCCC(=O)O
- Rel. Activity [1]: 0%

Compound: CCC(=O)CC(=O)OC
- Rel. Activity [1]: 18%

Compound: CCOC(=O)CC(=O)C(C)C
- Rel. Activity [1]: 24%

Compound: CCOC(=O)CC(=O)c1ccccc1
- Rel. Activity [1]: 0%

Compound: CCOC(=O)C(C)C(C)=O (stereo not drawn)
- Rel. Activity [1]: 70%

Compound: CC(=O)CCC(C)=O
- Rel. Activity [1]: 46%

Compound: O=C1Nc2ccccc2C1=O
- Rel. Activity [1]: 0%

Compound: O=C1CCCC(=O)C1
- Rel. Activity [1]: 0%

Compound: CC1CCC(=O)CC1
- Rel. Activity [1]: 40%

Compound: CC1CCCCC1=O (stereo not drawn)
- Rel. Activity [1]: 12%

Compound: CCOC(=O)C1CCCCC1=O (stereo not drawn)
- Rel. Activity [1]: 16%

Compound: CC(=O)c1ccccc1Cl
- Rel. Activity [1]: 0%

Compound: CC(=O)C(C)C
- Rel. Activity [1]: 28%

Compound: CC(=O)C(C)(C)O
- Rel. Activity [1]: 0%

Compound: COC(CC(C)=O)OC
- Rel. Activity [1]: 14%

Compound: O=CC1CCCCC1
- Rel. Activity [1]: 29%

Compound: CC(=O)C(Cl)Cl [1,1-Dichloroacetone]
- Km ([2]; partially purified enzyme): 176 µM
- Vmax [2, 3]: 45%
- Acceptance as substrate by the KERed (in words) [1]: acceptable as substrates

Compound: CCCCO [1-butanol]
- Km ([2]; partially purified enzyme): 2900 µM
- Vmax [2, 3]: 47%

Compound: CCCO [1-propanol]
- Km ([2]; partially purified enzyme): 3800 µM
- Vmax [2, 3]: 47%

Compound: CCC(=O)CC(C)=O [2,4-hexanedione]
- Acceptance as substrate by the KERed (in words) [1]: acceptable as substrates

Compound: CC(=O)CC(C)=O [2,4-pentanedione]
- Acceptance as substrate by the KERed (in words) [1]: acceptable as substrates

Compound: CCC(C)=O [2-Butanone]
- Km ([2]; partially purified enzyme): 1480 µM
- Vmax of the reference substrate ([2]; partially purified enzyme): 6 U mg
- Vmax [2, 3]: 100%
- Acceptance as substrate by the KERed (in words) [1]: acceptable as substrates

Compound: CCCCCCCCC(C)=O [2-decanone]
- Km ([2]; partially purified enzyme): 3960 µM
- Vmax [2, 3]: 20%

Compound: CCCCCC(C)=O [2-heptanone]
- Km ([2]; partially purified enzyme): 97 µM
- Vmax [2, 3]: 58%

Compound: CCCCC(C)=O [2-hexanone]
- Km ([2]; partially purified enzyme): 54 µM
- Vmax [2, 3]: 53%

Compound: CCC(=O)C(C)C [2-methyl-3-pentanone]
- Acceptance as substrate by the KERed (in words) [1]: acceptable as substrates

Compound: CCCCCCCC(C)=O [2-nonanone]
- Km ([2]; partially purified enzyme): 314 µM
- Vmax [2, 3]: 45%
- Ki ([2]; substrate inhibition observed, read-out: Kis (substrate inhibition)): 24.9 mM

Compound: CCCCCCC(C)=O [2-octanone]
- Km ([2]; partially purified enzyme): 324 µM
- Vmax [2, 3]: 62%
- Acceptance as substrate by the KERed (in words) [1]: acceptable as substrates

Compound: CCCC(C)=O [2-pentanone]
- Km ([2]; partially purified enzyme): 141 µM
- Vmax [2, 3]: 62%
- Acceptance as substrate by the KERed (in words) [1]: acceptable as substrates

Compound: CC(C)O [2-propanol]
- Km ([2]; partially purified enzyme): 2210 µM
- Vmax [2, 3]: 183%

Compound: CC(=O)C(C)Cl (stereo not drawn) [3-chloro-2-butanone]
- Km ([2]; partially purified enzyme): 442 µM
- Vmax [2, 3]: 50%
- Acceptance as substrate by the KERed (in words) [1]: acceptable as substrates

Compound: CC(=O)c1cccc(Cl)c1 [3-chloro-aceto-phenone]
- Km ([2]; partially purified enzyme): 15 µM
- Vmax [2, 3]: 32%
- Acceptance as substrate by the KERed (in words) [1]: acceptable as substrates

Compound: CCCCC(=O)CC [3-heptanone]
- Km ([2]; partially purified enzyme): 5600 µM
- Vmax [2, 3]: 11%

Compound: CCCC(=O)CC [3-hexanone]
- Km ([2]; partially purified enzyme): 840 µM
- Vmax [2, 3]: 10%

Compound: CCCCCC(=O)CC [3-octanone]
- Km ([2]; partially purified enzyme): 11200 µM
- Vmax [2, 3]: 12%

Compound: CC(=O)c1ccc(Br)cc1 [4-bromoacetophenone]
- Acceptance as substrate by the KERed (in words) [1]: acceptable as substrates

Compound: CC(=O)c1ccc(Cl)cc1 [4-chloro-acetophenone]
- Km ([2]; partially purified enzyme): 10 µM
- Vmax [2, 3]: 19%

Compound: CC(=O)c1ccc(F)cc1 [4-fluoroacetophenone]
- Acceptance as substrate by the KERed (in words) [1]: acceptable as substrates

Compound: CCCC(=O)CCC [4-heptanone]
- Km ([2]; partially purified enzyme): 5300 µM
- Vmax [2, 3]: 9%

Compound: CC[C@H](C)O [(S)-2-butanol]
- Km [2]: 600 µM
- Vmax [2]: 210%

Compound: CC=O [Acetaldehyde]
- Km ([2]; partially purified enzyme): 85 µM
- Vmax [2, 3]: 129%
- Acceptance as substrate by the KERed (in words) [1]: acceptable as substrates

Compound: CC(C)=O [Acetone]
- Km [2]: 1060 µM
- Vmax [2, 3]: 97%

Compound: CC(=O)c1ccccc1 [Acetophenone]
- Km ([2]; partially purified enzyme): 49 µM
- Vmax [2, 3]: 22%
- Acceptance as substrate by the KERed (in words) [1]: acceptable as substrates

Compound: CCOC(=O)CC(=O)CC [Ethyl 3-oxopentanoate]
- Km ([2]; partially purified enzyme): 6900 µM
- Vmax [2, 3]: 17%

Compound: CCOC(=O)CC(=O)CCl [Ethyl 4-chlor-3-oxo-butanoate]
- Km ([2]; partially purified enzyme): 3560 µM
- Vmax [2, 3]: 10%

Compound: CCOC(=O)CC(=O)C(F)(F)F [Ethyl 4-trifluor-3-oxo-butanoate]
- Km ([2]; partially purified enzyme): 2000 µM
- Vmax [2, 3]: 11%

Compound: CO [Methanol]
- Vmax [2, 3]: No Reaction

Compound: NC(=O)C1=CN([C@@H]2O[C@H](COP(=O)(O)OP(=O)(O)OC[C@H]3O[C@@H](n4cnc5c(N)ncnc54)[C@H](O)[C@@H]3O)[C@@H](O)[C@H]2O)C=CC1 [NADH]
- Km ([2]; partially purified enzyme): 38 µM

Compound: NC(=O)C1=CN([C@@H]2O[C@H](COP(=O)(O)OP(=O)(O)OC[C@H]3O[C@@H](n4cnc5c(N)ncnc54)[C@H](OP(=O)(O)O)[C@@H]3O)[C@@H](O)[C@H]2O)C=CC1 [NADPH]
- Vmax [2, 3]: No Reaction

Compound: COC(OC)C(C)=O [Pyruvaldehyde-Dimethyl-acetal]
- Km ([2]; partially purified enzyme): 189 µM
- Vmax [2, 3]: 24%

Compound: CC(=O)CC(=O)OC(C)(C)C [Tert.-Butyl 3-oxo-butanoate]
- Km ([2]; partially purified enzyme): 356 µM
- Vmax [2, 3]: 71%

Compound: CCOC(=O)CC(C)=O [drawing 3]
- Rel. Activity [1]: 76%

Compound: CCOC(=O)CC(C)=O [drawing 4]
- Rel. Activity [1]: 61%

Compound: CC(=O)CC(=O)OC(C)(C)C [drawing 5]
- Rel. Activity [1]: 137%

Compound: CC(=O)CCC(=O)O [drawing 6]
- Rel. Activity [1]: 0%

Compound: CCOC(=O)CCC(C)=O [drawing 7]
- Rel. Activity [1]: 76%

Compound: CCOC(=O)CC(=O)C(F)(F)F [drawing 10]
- Rel. Activity [1]: 21%

Compound: CCOC(=O)CC(=O)CCl [drawing 11]
- Rel. Activity [1]: 92%

Compound: CCOC(=O)CC(=O)CC [drawing 13]
- Rel. Activity [1]: 32%

Compound: CCCC(=O)CC(=O)OCC [drawing 14]
- Rel. Activity [1]: 51%

Compound: CC(=O)CC(C)=O [drawing 18]
- Rel. Activity [1]: 15%

Compound: CCC(=O)CC(C)=O [drawing 19]
- Rel. Activity [1]: 46%

Compound: CC(=O)c1ccccc1 [drawing 26]
- Rel. Activity [1]: 34%

Compound: CC(=O)c1cccc(Cl)c1 [drawing 28]
- Rel. Activity [1]: 35%

Compound: CC(=O)c1ccc(Br)cc1 [drawing 29]
- Rel. Activity [1]: 40%

Compound: CC(=O)c1ccc(F)cc1 [drawing 30]
- Rel. Activity [1]: 40%

Compound: CCC(=O)c1ccccc1 [drawing 31]
- Rel. Activity [1]: 0%

Compound: CC(=O)C(Cl)Cl [drawing 33]
- Rel. Activity [1]: 60%

Compound: CC(=O)C(C)Cl (stereo not drawn) [drawing 34]
- Rel. Activity [1]: 105%

Compound: COCC(C)=O [drawing 35]
- Rel. Activity [1]: 53%

Compound: CCC(=O)C(C)C [drawing 37]
- Rel. Activity [1]: 51%

Compound: CCC(C)=O [drawing 38]
- Rel. Activity [1]: 48%

Compound: CCCC(C)=O [drawing 39]
- Rel. Activity [1]: 40%

Compound: CCCCCCC(C)=O [drawing 40]
- Rel. Activity [1]: 54%

Compound: CCCCCC(=O)CC [drawing 41]
- Rel. Activity [1]: 33%

Compound: CCCC(=O)CC [drawing 43]
- Rel. Activity [1]: 4%

Compound: COC(OC)C(C)=O [drawing 44]
- Rel. Activity [1]: 118%

Compound: CC=O [drawing 46]
- Rel. Activity [1]: 150%

Compound: CCC=O [drawing 47]
- Rel. Activity [1]: 127%

Compound: CC(C)C=O [drawing 48]
- Rel. Activity [1]: 178%

Compound: CC(C)C=O [isobutyraldehyde]
- Acceptance as substrate by the KERed (in words) [1]: acceptable as substrates

Compound: COCC(C)=O [methoxy-2-propanone]
- Acceptance as substrate by the KERed (in words) [1]: acceptable as substrates

Compound: CCC=O [propionaldehyde]
- Acceptance as substrate by the KERed (in words) [1]: acceptable as substrates

Compound: CCC(=O)c1ccccc1 [propiophenone]
- Acceptance as substrate by the KERed (in words) [1]: acceptable as substrates

Reference: US5523223A, “Ketoester reductase for conversion of keto acid esters to optically active hydroxy acid esters” (priority 1992, dated 1996)
